We go through three molecules from US20100168182A1, “COMPOUNDS AND COMPOSITIONS AS KINASE INHIBITORS” (IRM LLC, priority 2006, published 2010).

The nature of series [1]: Measuring bioavailability: plasma concentration in mice. The format is in vivo, male Balb/c mice. To be noted: ratio compound 17 / compound A. On the procedure: Five- to six-week old male Balb/c mice are housed at room temperature (18 to 22° C.) and humidity in the range 40-70%. The animal weights at the time of compound administration range from 20 to 25 grams. The mice are fed a normal diet and have free access to water at all times, before and during experiments. Fasted animals are studied on an infrequent basis. To maximize drug absorption via oral gavage and/or study food effects, animals are fasted the night before dosing and 4 hours thereafter. Animal experiments are performed according to the Animal Welfare Act and the Guide for the Care and Use of Laboratory Animals approved by the Institutional Animal Care and Use Committee (IACUC).
Test compounds are dissolved in a vehicle for dosing at a final concentration of 0.5 to 10 mg/mL. Test compounds are dosed intravenously via the lateral tail vein and orally using a gavage needle. Dosing procedures, dosing volumes, and the selection of dosing vehicles or formulations adhered to the Guidelines issued by the Novartis Pharmacology Council entitled “Preparation and Administration of Experimental Formulation in Pre-ESC Phase”. Briefly, i.v. doses are administered in solutions that are neutral and isotonic aqueous based and oral doses are administered in either solution (with or without co-solvent) or suspension.
Blood samples are drawn via retro orbital sinus. For ease of handling, animals are sometimes anesthetized under isoflurane vapor. Approximately five 50 μl samples of blood are removed each sampling time.
Pharmacokinetic parameters are calculated by non-compartmental regression analysis using Winnonlin 4.0 software (Pharsight, Mountain View, Calif., USA). The typical intravenous and oral dosing study in mice would results in the reporting of the following pharmacokinetic parameters: i.v. dosing: Vss, CL, AUC, Cmax, Tmax, Clast, Tlast and T1/2; and p.o. dosing: F, AUC, Cmax, Tmax, Clast, Tlast and T1/2.

Series [2] deals with T1, Ba/F3 cells transformed with human Tel-TrkA (ETV6-NTRK1) (Homo sapiens, UniProt P04629).
T1 construct: expressed in transfected cells; host or cells: Ba/F3 murine hematopoietic progenitor cell line; the other entry of the earlier key: ETV6 (P41212, Transcription factor ETV6)
T1 sequence (P04629 510-796 limits assumed): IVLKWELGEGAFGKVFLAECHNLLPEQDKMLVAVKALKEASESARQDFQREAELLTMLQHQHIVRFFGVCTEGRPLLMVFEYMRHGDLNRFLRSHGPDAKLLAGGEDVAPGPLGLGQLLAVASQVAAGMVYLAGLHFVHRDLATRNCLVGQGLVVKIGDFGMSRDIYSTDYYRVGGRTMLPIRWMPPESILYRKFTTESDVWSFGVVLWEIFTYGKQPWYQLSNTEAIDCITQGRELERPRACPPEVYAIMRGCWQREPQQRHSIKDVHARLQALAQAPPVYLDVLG
The series can be described thus: Inhibition of cellular TrkA dependent proliferation (Ba/F3 Tel-TrkA). The format is cell-based. The settings on record: urea versus amide linkage. On the procedure:
(§1) Inhibition of Cellular TrkA, trkB or TrkC Dependent Proliferation
(§2) The cell line used is the Ba/F3 murine hematopoietic progenitor cell line transformed with human Tel-TrkA, Tel-TrkB or Tel-TrkC cDNAs (Ba/F3 EN A/B/C). These cells are maintained in RPMI/10% fetal bovine serum (RPMI/F B S) supplemented with penicillin 50 μg/mL, streptomycin 50 μg/mL and L-glutamine 200 mM. Untransformed Ba/F3 cells are similarly maintained with the addition 5 ng/ml of murine recombinant IL3.
(§3) 50 μl of a Ba/F3 or Ba/F3 EN A/B/C cell suspension are plated in Greiner 384 well microplates (white) at a density of 2000 cells per well. 50 nl of serially diluted test compound (1 0-0.0001 mM in DMSO solution) is added to each well. […] The emited luminiscence is quantified using the Acquest™ system (Molecular Devices).
(§4) Compounds of the invention are tested for their antiproliferative effect on Ba/F3 cells expressing either Tel-TrkA, Tel-TrkB or Tel-TrkC and an additional panel of 34 selected diverse kinases activated by fusion to the dimerizing partners Bcr or Tel (Abl, AlK, BMX, EphA3, EphB2, FGFR2, FGFR3, FGFR4, FGR, FLT1, FLT3, FLT4, FMS, IGF1R, InsR, JAK1, JAK2, JAK3, KDR, Kit, Lck, Lyn, MER, MET, PDGFRb, RET, RON, Ros-1, Src, Syk, TIE2, TYK2, Tie1, ZAP70). […] The IC50 values of the compounds in the different cell lines were determined from the dose response curves obtained as describe above.

The subject of series [3] is Ba/F3 cells transformed with human Tel-TrkC (ETV6-NTRK3). Put plainly: Inhibition of cellular TrkC dependent proliferation (Ba/F3 Tel-TrkC). The format is cell-based. To be noted: urea versus amide linkage. On the procedure:
as §1, §2, §3, §4

In series [4] the target is T2, Ba/F3 cells transformed with human Tel-TrkB (ETV6-NTRK2) (Homo sapiens, UniProt Q16620).
T2 construct: expressed in transfected cells; host or cells: Ba/F3 murine hematopoietic progenitor cell line; the other entry of the earlier key: ETV6 (P41212, Transcription factor ETV6)
T2 sequence (Q16620 538-822 limits assumed): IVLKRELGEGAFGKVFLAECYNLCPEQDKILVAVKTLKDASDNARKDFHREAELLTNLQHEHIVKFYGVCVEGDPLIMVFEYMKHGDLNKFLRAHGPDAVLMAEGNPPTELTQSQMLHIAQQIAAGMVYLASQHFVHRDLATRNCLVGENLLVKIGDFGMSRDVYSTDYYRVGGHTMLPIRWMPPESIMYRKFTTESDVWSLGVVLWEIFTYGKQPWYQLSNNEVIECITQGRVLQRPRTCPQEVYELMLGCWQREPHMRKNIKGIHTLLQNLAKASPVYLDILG
Put plainly: Inhibition of cellular TrkB dependent proliferation (Ba/F3 Tel-TrkB). The format is cell-based. To be noted: urea versus amide linkage. Here is the method:
as §1, §2, §3, §4

Take `O=C(Nc1cccc(Nc2ccc3c(c2)NC(=O)/C3=C\c2ccc[nH]2)c1)Nc1ccc(F)cc1F` [Compound 17, 1-(2,4-Difluoro-phenyl)-3-{3-[2-oxo-3-(1H-pyrrol-2-ylmethylene)-2,3-dihydro-1H-indol-6-ylamino]-phenyl}-urea]: the “plasma concentration relative to compound A” value turned out to be 2.2 times in series [1] (at 30 minutes), 4.1 times in series [1] (at 1 hour), 4.7 times in series [1] (at 3 hours) and 2.3 times in series [1] (at 5 hours). Besides, in series [2], the “potency for TrkA relative to the equivalent amide-linked compound (compound A)” value is reported as “at least 132 fold”. For the same molecule, the “potency for TrkC relative to the equivalent amide-linked compound (compound A)” value in series [3] is “at least 132 fold”. Besides, the “potency for TrkB relative to the equivalent amide-linked compound (compound A)” value in series [4] is reported as “at least 132 fold”.

What is called melting point is the temperature, or range, at which the solid turns liquid. Molecule `O=C(Nc1cccc(Nc2ccc3c(c2)NC(=O)/C3=C\c2ccc[nH]2)c1)Nc1cccc(C(F)(F)F)c1` [Example 1, 1-{3-[2-oxo-3-(1H-pyrrol-2-ylmethylene)-2,3-dihydro-1H-indol-6-ylamino]phenyl}-3-(3-trifluoromethylphenyl)urea] showed a melting point of 253 to 256 °C.

For `O=C(Nc1cccc(Nc2ccc3c(c2)NC(=O)/C3=C\c2ccc[nH]2)c1)Nc1cc(F)c(F)cc1F` [Example 3, 1-{3-[2-oxo-3-(1H-pyrrol-2-ylmethylene)-2,3-dihydro-1H-indol-6-ylamino]phenyl}-3-(2,4,5-trifluorophenyl)urea], the melting point is 224 to 226 °C.
